This test deals with rat 5-HT7 receptor (Rattus norvegicus (Rat), UniProt P32305). The experiment in a line: r5-HT7 binding assay, competitive radioligand binding with [3H]5-CT. The note with it: rat 5-HT7 receptor, HEK-293 membranes. The method, then:
Receptor binding was performed using membrane fractions prepared from the HEK-293 cell line recombinantly expressing rat 5-HT7 receptors (NCBI accession NM_022938). Compound affinity for the rat 5-HT7 receptor subtype was evaluated by competitive radioligand binding assays using 5-carboxamido[^3H]tryptamine ([^3H]5-CT) (Amersham Biosciences, cat. 90000403) detection. HitHunter™ cAMP assays are in-vitro based competitive immunoassays. The assay was performed on the HEK-293 cell line stably transfected with r5-HT7 receptor. Cells were pre-incubated with test compounds for 10 minutes. For antagonist testing, the cells were then challenged with 100 nM 5-CT for 20 minutes. Cells were then lysed and cAMP measured according to manufacturers protocol (Amersham, cat. NET791250UC) or [^3H]mesulergine (Amersham, cat. TRK1041). The assay was performed on membranes prepared from HEK-293 cells stably transfected with h5-HT6. Following centrifugation, membranes were resuspended and incubated for 60 min at room temperature with 1.7 nM [^3H]LSD in the presence of increasing concentration of test compounds. Nonspecific binding was defined in the presence of 10 μM clozapine (Tocris, cat. TRK1068). Homogenized HEK-293 membranes expressing the human SERT were incubated in 50 mM Tris-HCl (pH 7.5), 120 mM NaCl, 5 mM KCl with [^3H]-citalopram (3 nM) with or without test compounds. Nonspecific binding was determined in the presence of 10 μM fluoxetine. Radioactivity readouts and Ki values were performed as previously described for r5-HT7. […] Compounds were assayed in their free form or as salts, as indicated in the Examples section above.

Molecules are shown by their SMILES. Counter-ions that a name gives are not always drawn.

This is an account of results in patent US9981909B2 (Janssen Pharmaceutica NV, priority 2008, dated 2018).

rat 5-HT7 receptor, sequence (P32305 1-435): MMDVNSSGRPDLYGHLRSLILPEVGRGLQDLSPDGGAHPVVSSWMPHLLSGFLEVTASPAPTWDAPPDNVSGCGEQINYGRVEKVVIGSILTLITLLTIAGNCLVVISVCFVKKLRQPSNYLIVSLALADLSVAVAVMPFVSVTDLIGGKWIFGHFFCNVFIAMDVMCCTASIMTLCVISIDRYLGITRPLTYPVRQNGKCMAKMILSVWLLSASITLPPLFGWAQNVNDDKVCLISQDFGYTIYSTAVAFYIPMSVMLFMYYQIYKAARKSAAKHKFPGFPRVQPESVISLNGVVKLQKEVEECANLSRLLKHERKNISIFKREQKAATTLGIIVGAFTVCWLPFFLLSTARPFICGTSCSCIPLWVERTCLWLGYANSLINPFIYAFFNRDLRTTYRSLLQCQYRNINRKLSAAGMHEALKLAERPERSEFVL

As usually defined, the Ki is a dissociation constant, usually derived from enzyme kinetics or from competition with a known ligand. Lower therefore signals higher affinity. In turn, `FC(F)(F)c1ccc(COc2ccc(Cl)cc2OC2CCCNC2)o1` (racemic) [Example 69, (±)-3-[5-Chloro-2-(5-trifluoromethyl-furan-2-ylmethoxy)-phenoxy]-piperidine] returned a Ki of 94 nM. That is a double-digit nanomolar value.

On to `Clc1ccc(OCc2ccccc2)c(OC2CCCNC2)c1` (racemic) [Example 70, (±)-3-(2-Benzyloxy-5-chloro-phenoxy)-piperidine], for which the affinity corresponds to a Ki of 174 nM. Against the preceding compound, the Ki is about 1.9-fold higher.

For the compound `FC(F)(F)c1cccc(COc2ccc(Cl)cc2OC2CCCNC2)c1` (racemic) [Example 71, (±)-3-[5-Chloro-2-(3-trifluoromethyl-benzyloxy)-phenoxy]-piperidine], the affinity, expressed as Ki, was 143 nM. The Ki values of the last two compounds are within 1.5-fold of each other.

`CN1CCC(Oc2cc(Br)ccc2OCc2cccc(Cl)c2)C1` (racemic) [Example 95, (±)-3-[5-Bromo-2-(3-chloro-benzyloxy)-phenoxy]-1-methyl-pyrrolidine] showed a Ki of 9 nM.

Consider `COc1cccc(COc2ccc(Br)cc2OC2CCN(C)C2)c1` (racemic) [Example 96, (±)-3-[5-Bromo-2-(3-methoxy-benzyloxy)-phenoxy]-1-methyl-pyrrolidine], for which the Ki came to 13 nM.

As to `CN1CCC(Oc2cc(Br)ccc2OCc2cccc(F)c2)C1` (racemic) [Example 97, (±)-3-[5-Bromo-2-(3-fluoro-benzyloxy)-phenoxy]-1-methyl-pyrrolidine], affinity was put at a Ki of 34 nM. Against the preceding compound, the Ki is about 2.6-fold higher.

As for `CN1CCC(Oc2cc(Br)ccc2OCc2ccccc2)C1` (racemic) [Example 98, (±)-3-(2-Benzyloxy-5-bromo-phenoxy)-1-methyl-pyrrolidine], the Ki was 23 nM.

The compound `CN1CCC(Oc2cc(Br)ccc2OCc2cccc(OS(C)(=O)=O)c2)C1` (racemic) [Example 99, (±)-Methanesulfonic acid 3-[4-bromo-2-(1-methyl-pyrrolidin-3-yloxy)-phenoxymethyl]-phenyl ester] registered an inhibition constant Ki of 5 nM.

In the case of `CN1CCC(Oc2ccccc2OCc2cccc(OS(C)(=O)=O)c2)C1` (racemic) [Example 100, (±)-Methanesulfonic acid 3-[2-(1-methyl-pyrrolidin-3-yloxy)-phenoxymethyl]-phenyl ester], the Ki stood at 150 nM.

`CC(Oc1ccc(Cl)cc1OC1CN(C(C)C)C1)c1cccc(C(F)(F)F)c1` (racemic) [Example 106, (±)-3-[5-Chloro-2-[1-(3-trifluoromethyl-phenyl)-ethoxy]-phenoxy]-1-isopropyl-azetidine] showed a Ki of 75 nM.

`CC(Oc1ccc(Cl)cc1OC1CN(C2CCC2)C1)c1cccc(C(F)(F)F)c1` (racemic) [Example 107, (±)-3-[5-Chloro-2-[1-(3-trifluoromethyl-phenyl)-ethoxy]-phenoxy]-1-cyclobutyl-azetidine] yielded an inhibition constant Ki of 90 nM.

On to `CC(Oc1ccc(Cl)cc1OC1CNC1)c1ccccc1Cl` (racemic) [Example 116, (±)-3-[5-Chloro-2-[1-(2-chloro-phenyl)-ethoxy]-phenoxy]-azetidine], for which the inhibitory constant (Ki) came to 68 nM.

`CC(Oc1ccc(Cl)cc1OC1CNC1)c1ccc(C(F)(F)F)c(F)c1` (racemic) [Example 118, (±)-3-[5-Chloro-2-[1-(3-fluoro-4-trifluoromethyl-phenyl)-ethoxy]-phenoxy]-azetidine] registered a Ki of 90 nM. The Ki values of the last two compounds are within 1.5-fold of each other.

In turn, `CC(Oc1ccc(Cl)cc1OC1CNC1)c1cc(F)cc(C(F)(F)F)c1` (racemic) [Example 119, (±)-3-[5-Chloro-2-[1-(3-fluoro-5-trifluoromethyl-phenyl)-ethoxy]-phenoxy]-azetidine] came in with a Ki of 288 nM. This Ki lies about 3.2-fold higher than the previous one.

In turn, `CC(Oc1ccc(Cl)cc1OC1CNC1)c1cccc(SC(F)(F)F)c1` (racemic) [Example 120, (±)-3-[5-Chloro-2-[1-(3-trifluoromethylsulfanyl-phenyl)-ethoxy]-phenoxy]-azetidine] registered an inhibitory constant (Ki) of 40 nM.

Turning to `CC(Oc1ccc(Cl)cc1OC1CNC1)c1ccccc1C(F)(F)F` (racemic) [Example 122, (±)-3-[5-Chloro-2-[1-(2-trifluoromethyl-phenyl)-ethoxy]-phenoxy]-azetidine], the affinity corresponds to a Ki of 210 nM.

On to `CC(Oc1ccc(Cl)cc1OC1CNC1)c1cccc(C#N)c1` (racemic) [Example 125, (±)-3-[1-[2-(Azetidin-3-yloxy)-4-chloro-phenoxy]-ethyl]-benzonitrile], for which the Ki was found to be 104 nM.

Consider `CC(Oc1ccc(Cl)cc1OC1CNC1)c1ccc(Cl)c(Cl)c1` (racemic) [Example 126, (±)-3-[5-Chloro-2-[1-(3,4-dichloro-phenyl)-ethoxy]-phenoxy]-azetidine], for which the Ki turned out to be 38 nM.

With `CC(Oc1ccc(Cl)cc1OC1CNC1)c1cccc(OC(F)(F)F)c1` (racemic) [Example 127, (±)-3-[5-Chloro-2-[1-(3-trifluoromethoxy-phenyl)-ethoxy]-phenoxy]azetidine], the Ki turned out to be 63 nM. Compared with the last compound, the Ki is about 1.7-fold higher.

`CC(Oc1ccc(Cl)cc1OC1CNC1)c1ccc(F)c(F)c1` (racemic) [Example 128, (±)-3-[5-Chloro-2-[1-(3,4-difluoro-phenyl)-ethoxy]-phenoxy]-azetidine trifluoroacetate] returned an inhibition constant (Ki) of 127 nM.

`CC(Oc1ccc(Cl)cc1OC1CNC1)c1cc(Cl)ccc1Cl` (racemic) [Example 129, (±)-3-[5-Chloro-2-[1-(2,5-dichloro-phenyl)-ethoxy]-phenoxy]-azetidine trifluoroacetate] showed a Ki of 903 nM.

As to `CC(Oc1ccc(Cl)cc1OC1CNC1)c1cc(F)ccc1F` (racemic) [Example 130, (±)-3-[5-Chloro-2-[1-(2,5-difluoro-phenyl)-ethoxy]-phenoxy]-azetidine trifluoroacetate], affinity was put at a Ki of 371 nM.

Consider `CC(Oc1ccc(Cl)cc1OC1CCNCC1)c1cccc(OC(F)(F)F)c1` (racemic) [Example 137, (±)-4-[5-Chloro-2-[1-(3-trifluoromethoxy-phenyl)-ethoxy]-phenoxy]-piperidine], for which the affinity, expressed as Ki, was 472 nM.

In the case of `CC(Oc1ccc(Cl)cc1OC1CCNCC1)c1ccccc1F` (racemic) [Example 138, (±)-4-[5-Chloro-2-[1-(2-fluoro-phenyl)-ethoxy]-phenoxy]-piperidine], the Ki was 42 nM. This Ki lies about 11-fold lower than the previous one.

Compound `CCC(Oc1ccc(Cl)cc1OC1CNC1)c1cccc(C(F)(F)F)c1` (racemic) [Example 140, (±)-3-[5-Chloro-2-[1-(3-trifluoromethyl-phenyl)-propoxy]-phenoxy]-azetidine] came in with a Ki of 230 nM.

In the case of `CCC(Oc1ccc(Cl)cc1OC1CCNCC1)c1cccc(C(F)(F)F)c1` (racemic) [Example 141, (±)-4-[5-Chloro-2-[1-(3-trifluoromethyl-phenyl)-propoxy]-phenoxy]-piperidine], affinity was put at a Ki of 450 nM.

Consider `FCC(Oc1ccc(Cl)cc1OC1CCNCC1)c1ccccc1` (racemic) [Example 144, (±)-4-[5-Chloro-2-(2-fluoro-1-phenyl-ethoxy)-phenoxy]-piperidine], for which the affinity, expressed as Ki, was 304 nM.

For the compound `FC(F)(F)Oc1ccc(COc2ccc(Br)cc2OC2CNC2)cc1Cl` [Example 11, 3-[5-Bromo-2-(3-chloro-4-trifluoromethoxy-benzyloxy)-phenoxy]-azetidine], the inhibitory constant (Ki) was 53 nM.

`CN1CC(Oc2cc(Br)ccc2OCc2ccccc2Cl)C1` [Example 16, 3-[5-Bromo-2-(2-chloro-benzyloxy)-phenoxy]-1-methyl-azetidine] gave a Ki of 100 nM.

Compound `CC(C)N1CC(Oc2cc(Br)ccc2OCc2cccc(F)c2)C1` [Example 20, 3-[5-Bromo-2-(3-fluoro-benzyloxy)-phenoxy]-1-isopropyl-azetidine] yielded a Ki of 8 nM.

Take `Fc1cccc(COc2ccc(Br)cc2OC2CN(C3CCC3)C2)c1` [Example 21, 3-[5-Bromo-2-(3-fluoro-benzyloxy)-phenoxy]-1-cyclobutyl-azetidine]: the Ki was 20 nM. This Ki lies about 2.5-fold higher than the previous one.

`Clc1cccc(COc2cc(Br)ccc2OC2CN(C3CCC3)C2)c1` [Example 23, 3-[4-Bromo-2-(3-chloro-benzyloxy)-phenoxy]-1-cyclobutyl-azetidine] registered a Ki of 121 nM. Against the preceding compound, the Ki is about 6-fold higher.

For the compound `CC(C)N1CC(Oc2ccc(Br)cc2OCc2cccc(Cl)c2)C1` [Example 24, 3-[4-Bromo-2-(3-chloro-benzyloxy)-phenoxy]-1-isopropyl-azetidine], the Ki came to 190 nM.

The compound `Cc1cc(COc2ccc(Cl)cc2OC2CNC2)no1` [Example 30, 3-[2-(Azetidin-3-yloxy)-4-chloro-phenoxymethyl]-5-methyl-isoxazole] showed a Ki of 105 nM.

`FC(F)(F)Oc1ccc(COc2ccc(Cl)cc2OC2CNC2)cc1Cl` [Example 41, 3-[5-Chloro-2-(3-chloro-4-trifluoromethoxy-benzyloxy)-phenoxy]-azetidine] displayed a Ki of 130 nM.

`N#Cc1ccc(COc2ccc(Cl)cc2OC2CNC2)cc1` [Example 44, 4-[2-(Azetidin-3-yloxy)-4-chloro-phenoxymethyl]-benzonitrile]: the Ki stood at 87 nM. This Ki and that of the compound before are within 1.5-fold of each other.

`FC(F)(F)Sc1ccc(COc2ccc(Cl)cc2OC2CNC2)cc1` [Example 46, 3-[5-Chloro-2-(4-trifluoromethylsulfanyl-benzyloxy)-phenoxy]-azetidine] registered a Ki of 102 nM.

`Fc1cc(C(F)(F)F)ccc1COc1ccc(Cl)cc1OC1CNC1` [Example 48, 3-[5-Chloro-2-(2-fluoro-4-trifluoromethyl-benzyloxy)-phenoxy]-azetidine] gave a Ki of 88 nM.
